The source of these data is patent EP4467141A1, “PYRAZOLO-QUINOLINES AS SELECTIVE INHIBITORS OF GENOTOXIC STRESS-INDUCED IKK/NF- KB PATHWAYS FOR CANCER THERAPY” (Max-Delbrück-Centrum für Molekulare Medizin in der …, priority 2023, dated 2024).

What all share (assay): Kinase panel study
Type in all cases: biochemical

Assay [1] deals with T1, PIK3CB/PIK3R2 (p11 0 beta/p85 beta) (Homo sapiens, UniProt P42338).
T1 construct: purchased Thermo Fisher Scientific
The gist of the method:
(§1)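 In vitro, kinase panel; ZLyte or Adapta SOP; single-concentration testing (1 or 10 µM); output = % inhibition, plus IC50 in panel.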

The target in another assay is T2, PIK3CG (p11 0 gamma) (Homo sapiens, UniProt P48736).
T2 construct: purchased Thermo Fisher Scientific
The gist of the method:
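ZLyte/Adapta biochemical kinase assays, standard operating procedures; % inhibition at 1 µM or 10 µM test compound; IC50 determined in panel.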

The target of another assay is T3, MINK1 (Homo sapiens, UniProt Q8N4C8).
T3 construct: purchased Thermo Fisher Scientific
The method, boiled down:
as §1

For another assay, the target named is T4, AKT1 (PKB alpha) (Homo sapiens, UniProt P31749).
T4 construct: purchased Thermo Fisher Scientific
The method, boiled down:
as §1

The target of a further assay is T5, PIK3C2A (PI3K-C2 alpha) (Homo sapiens, UniProt O00443).
T5 construct: purchased Thermo Fisher Scientific
The gist of the method: as §1

The target in assay [2] is T6, PIK3CA/PIK3R1 (p11 0 alpha/p85 alpha) (Homo sapiens, UniProt P42336).
T6 construct: purchased Thermo Fisher Scientific
The gist of the method:
as §1

A further assay addresses T7, BTK (Homo sapiens, UniProt Q06187).
T7 construct: purchased Thermo Fisher Scientific
The method, boiled down: as §1

The target of assay [3] is T8, PIK3CD/PIK3R1 (p11 0 delta/p85 alpha) (Homo sapiens, UniProt O00329).
T8 construct: purchased Thermo Fisher Scientific
The method, boiled down: as §1

A further assay addresses T9, PIP5K1C (Homo sapiens, UniProt O60331).
T9 construct: purchased Thermo Fisher Scientific
The method, boiled down:
as §1

The target of a further assay is T10, PI4K2B (PI4K2 beta) (Homo sapiens, UniProt Q8TCG2).
T10 construct: purchased Thermo Fisher Scientific
The method, boiled down:
as §1

Another assay concerns the target T11, CSF1R (FMS) (Homo sapiens, UniProt P07333).
T11 construct: purchased Thermo Fisher Scientific
The method, boiled down:
as §1

For another assay, the target named is T12, PIP5K1A (Homo sapiens, UniProt Q99755).
T12 construct: purchased Thermo Fisher Scientific
The method, boiled down:
as §1

The target in another assay is T13, FLT3 (Homo sapiens, UniProt P36888).
T13 construct: purchased Thermo Fisher Scientific
T13 sequence (P36888 27-993): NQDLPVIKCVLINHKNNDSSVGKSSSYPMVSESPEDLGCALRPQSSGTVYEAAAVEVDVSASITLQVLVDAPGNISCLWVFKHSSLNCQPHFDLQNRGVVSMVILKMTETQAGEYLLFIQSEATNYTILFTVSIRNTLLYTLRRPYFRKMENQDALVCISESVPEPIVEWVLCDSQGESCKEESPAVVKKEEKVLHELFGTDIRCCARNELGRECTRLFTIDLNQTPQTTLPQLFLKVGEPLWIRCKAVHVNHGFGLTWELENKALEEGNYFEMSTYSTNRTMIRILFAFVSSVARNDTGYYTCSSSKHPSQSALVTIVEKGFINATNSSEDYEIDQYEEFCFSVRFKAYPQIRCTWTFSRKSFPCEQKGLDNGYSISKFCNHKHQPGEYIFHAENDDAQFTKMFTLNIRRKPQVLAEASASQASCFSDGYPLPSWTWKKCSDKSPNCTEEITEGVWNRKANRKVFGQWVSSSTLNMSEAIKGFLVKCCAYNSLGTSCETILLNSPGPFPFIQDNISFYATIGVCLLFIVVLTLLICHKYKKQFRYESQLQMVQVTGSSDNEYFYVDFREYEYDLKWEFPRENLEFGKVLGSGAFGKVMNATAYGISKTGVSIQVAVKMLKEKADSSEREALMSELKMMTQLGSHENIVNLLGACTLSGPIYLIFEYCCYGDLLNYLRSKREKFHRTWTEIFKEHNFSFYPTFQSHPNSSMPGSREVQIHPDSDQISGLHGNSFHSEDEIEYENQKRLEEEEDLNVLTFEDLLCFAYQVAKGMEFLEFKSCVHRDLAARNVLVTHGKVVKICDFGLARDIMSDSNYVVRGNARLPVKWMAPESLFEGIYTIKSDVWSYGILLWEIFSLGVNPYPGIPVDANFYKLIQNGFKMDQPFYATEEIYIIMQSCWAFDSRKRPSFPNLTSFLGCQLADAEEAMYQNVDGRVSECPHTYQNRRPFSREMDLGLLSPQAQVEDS
The gist of the method: as §1

The next assay concerns the target T14, PI4K2A (PI4K2 alpha) (Homo sapiens, UniProt Q9BTU6).
T14 construct: purchased Thermo Fisher Scientific
The gist of the method:
as §1

Setting [4] is: PIK3CB/PIK3R2, compound at 10µM, read-out: % of Inhibition.
Where [5] appears, read: PIK3CG, compound at 10µM, read-out: % of Inhibition.
Setting [6] is: MINK1, compound at 10µM, read-out: % of Inhibition.
Setting [7] is: AKT1 (PKB alpha), compound at 10µM, read-out: % of Inhibition.
Setting [8] is: PIK3C2A (PI3K-C2 alpha), compound at 10µM, read-out: % of Inhibition.
The mark [9] stands for this setting: PIK3CA/PIK3R1, compound at 10µM, read-out: % of Inhibition.
The mark [10] stands for this setting: BTK, compound at 10µM, read-out: % of Inhibition.
[11] abbreviates: PIK3CD/PIK3R1, compound at 10µM, read-out: % of Inhibition.
Setting [12] is: PIP5K1C, compound at 10µM, read-out: % of Inhibition.
Where [13] appears, read: PI4K2B (PI4K2 beta), compound at 10µM, read-out: % of Inhibition.
The mark [14] stands for this setting: CSF1R (FMS), compound at 10µM, read-out: % of Inhibition.
Where [15] appears, read: PIP5K1A, compound at 10µM, read-out: % of Inhibition.
[16] abbreviates: FLT3, compound at 10µM, read-out: % of Inhibition.
Where [17] appears, read: PI4K2A (PI4K2 alpha), compound at 10µM, read-out: % of Inhibition.
Setting [18] is: 1000nM, read-out: Percentage of inhibition.
The mark [19] stands for this setting: 10000nM, read-out: Percentage of inhibition.

Where two headings read alike, the source gives them in different places.

T2 sequence (P48736 whole entry): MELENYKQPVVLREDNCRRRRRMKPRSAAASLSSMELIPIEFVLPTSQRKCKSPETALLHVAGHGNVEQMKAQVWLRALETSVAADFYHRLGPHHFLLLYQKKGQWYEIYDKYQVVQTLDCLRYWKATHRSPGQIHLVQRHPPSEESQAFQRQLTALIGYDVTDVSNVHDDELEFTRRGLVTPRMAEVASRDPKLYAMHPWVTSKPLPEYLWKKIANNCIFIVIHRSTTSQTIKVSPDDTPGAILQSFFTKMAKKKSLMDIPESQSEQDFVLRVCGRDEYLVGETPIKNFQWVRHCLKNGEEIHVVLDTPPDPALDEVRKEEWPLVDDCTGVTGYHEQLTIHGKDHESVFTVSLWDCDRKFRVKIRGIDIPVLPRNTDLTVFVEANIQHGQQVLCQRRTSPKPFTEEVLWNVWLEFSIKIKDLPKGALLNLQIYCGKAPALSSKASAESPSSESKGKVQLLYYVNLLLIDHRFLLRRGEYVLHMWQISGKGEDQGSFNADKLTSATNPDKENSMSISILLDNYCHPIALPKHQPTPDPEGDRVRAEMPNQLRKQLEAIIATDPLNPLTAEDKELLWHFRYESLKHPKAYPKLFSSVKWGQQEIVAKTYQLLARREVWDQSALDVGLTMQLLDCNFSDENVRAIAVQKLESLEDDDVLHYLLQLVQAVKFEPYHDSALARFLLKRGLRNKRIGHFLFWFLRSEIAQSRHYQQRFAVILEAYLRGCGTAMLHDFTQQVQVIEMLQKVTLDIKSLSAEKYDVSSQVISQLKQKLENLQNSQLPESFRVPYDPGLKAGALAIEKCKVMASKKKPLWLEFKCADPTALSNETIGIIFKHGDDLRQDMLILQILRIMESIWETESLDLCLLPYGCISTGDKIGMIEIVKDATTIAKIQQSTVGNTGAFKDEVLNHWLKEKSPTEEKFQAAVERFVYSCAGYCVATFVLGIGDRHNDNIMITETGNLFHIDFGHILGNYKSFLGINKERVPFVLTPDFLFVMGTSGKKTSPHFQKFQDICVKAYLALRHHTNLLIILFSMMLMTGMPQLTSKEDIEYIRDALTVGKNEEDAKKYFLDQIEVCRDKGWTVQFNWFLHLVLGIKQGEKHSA
T9 sequence (O60331 whole entry): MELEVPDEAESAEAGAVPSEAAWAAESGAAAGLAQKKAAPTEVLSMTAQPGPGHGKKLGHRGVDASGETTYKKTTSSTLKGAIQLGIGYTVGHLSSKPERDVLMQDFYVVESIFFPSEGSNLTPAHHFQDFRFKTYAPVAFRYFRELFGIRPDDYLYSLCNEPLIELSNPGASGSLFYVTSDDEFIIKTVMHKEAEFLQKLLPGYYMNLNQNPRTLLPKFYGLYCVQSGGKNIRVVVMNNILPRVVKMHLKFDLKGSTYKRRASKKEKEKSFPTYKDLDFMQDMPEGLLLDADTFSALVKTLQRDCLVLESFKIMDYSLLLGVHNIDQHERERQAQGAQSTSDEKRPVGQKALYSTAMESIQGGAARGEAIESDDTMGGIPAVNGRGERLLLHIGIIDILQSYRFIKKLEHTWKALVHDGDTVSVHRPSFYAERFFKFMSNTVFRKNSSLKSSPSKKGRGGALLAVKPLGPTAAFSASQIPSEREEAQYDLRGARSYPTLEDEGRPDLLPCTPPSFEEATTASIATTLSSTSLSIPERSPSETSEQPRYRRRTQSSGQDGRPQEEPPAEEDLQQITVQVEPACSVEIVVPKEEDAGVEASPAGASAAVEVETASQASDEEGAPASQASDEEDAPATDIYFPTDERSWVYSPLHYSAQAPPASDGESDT
T4 sequence (P31749 whole entry): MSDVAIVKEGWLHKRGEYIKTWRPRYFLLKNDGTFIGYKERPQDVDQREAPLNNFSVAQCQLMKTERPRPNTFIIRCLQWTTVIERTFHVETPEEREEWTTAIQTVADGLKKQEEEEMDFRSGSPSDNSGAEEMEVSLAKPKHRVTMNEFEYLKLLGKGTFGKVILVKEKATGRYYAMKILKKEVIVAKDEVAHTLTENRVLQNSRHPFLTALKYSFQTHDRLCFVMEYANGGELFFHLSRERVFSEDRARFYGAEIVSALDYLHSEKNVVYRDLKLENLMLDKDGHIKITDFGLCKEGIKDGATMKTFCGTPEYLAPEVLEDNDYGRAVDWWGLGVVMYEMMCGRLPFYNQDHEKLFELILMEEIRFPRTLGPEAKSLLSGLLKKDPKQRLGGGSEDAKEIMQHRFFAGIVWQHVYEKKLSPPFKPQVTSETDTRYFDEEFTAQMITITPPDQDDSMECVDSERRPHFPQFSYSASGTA
T11 sequence (P07333 20-972): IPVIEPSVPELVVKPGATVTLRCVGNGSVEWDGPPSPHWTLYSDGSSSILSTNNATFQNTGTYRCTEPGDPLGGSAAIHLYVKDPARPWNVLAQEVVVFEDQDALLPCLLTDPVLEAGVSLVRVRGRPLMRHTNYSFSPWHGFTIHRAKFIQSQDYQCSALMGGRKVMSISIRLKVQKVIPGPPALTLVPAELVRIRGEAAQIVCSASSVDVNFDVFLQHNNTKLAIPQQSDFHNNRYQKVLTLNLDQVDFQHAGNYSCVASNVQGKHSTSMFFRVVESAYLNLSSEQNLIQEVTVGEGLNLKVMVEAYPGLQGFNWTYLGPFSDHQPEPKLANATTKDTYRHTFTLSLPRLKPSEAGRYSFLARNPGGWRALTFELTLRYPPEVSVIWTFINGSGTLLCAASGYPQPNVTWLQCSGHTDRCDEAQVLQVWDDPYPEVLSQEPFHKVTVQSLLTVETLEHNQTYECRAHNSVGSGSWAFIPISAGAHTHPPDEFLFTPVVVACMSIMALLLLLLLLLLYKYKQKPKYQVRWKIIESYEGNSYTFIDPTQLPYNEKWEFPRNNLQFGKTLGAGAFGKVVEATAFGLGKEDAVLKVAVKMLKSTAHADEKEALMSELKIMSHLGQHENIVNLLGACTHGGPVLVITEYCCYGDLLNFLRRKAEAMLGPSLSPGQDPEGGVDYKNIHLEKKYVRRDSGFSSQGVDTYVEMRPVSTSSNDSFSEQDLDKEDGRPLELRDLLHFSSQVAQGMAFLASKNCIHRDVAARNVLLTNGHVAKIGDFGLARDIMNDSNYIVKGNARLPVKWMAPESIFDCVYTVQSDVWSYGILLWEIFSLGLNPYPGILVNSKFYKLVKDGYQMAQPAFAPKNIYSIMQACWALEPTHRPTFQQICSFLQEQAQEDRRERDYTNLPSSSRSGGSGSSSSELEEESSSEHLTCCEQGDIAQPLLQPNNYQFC
T5 sequence (O00443 whole entry): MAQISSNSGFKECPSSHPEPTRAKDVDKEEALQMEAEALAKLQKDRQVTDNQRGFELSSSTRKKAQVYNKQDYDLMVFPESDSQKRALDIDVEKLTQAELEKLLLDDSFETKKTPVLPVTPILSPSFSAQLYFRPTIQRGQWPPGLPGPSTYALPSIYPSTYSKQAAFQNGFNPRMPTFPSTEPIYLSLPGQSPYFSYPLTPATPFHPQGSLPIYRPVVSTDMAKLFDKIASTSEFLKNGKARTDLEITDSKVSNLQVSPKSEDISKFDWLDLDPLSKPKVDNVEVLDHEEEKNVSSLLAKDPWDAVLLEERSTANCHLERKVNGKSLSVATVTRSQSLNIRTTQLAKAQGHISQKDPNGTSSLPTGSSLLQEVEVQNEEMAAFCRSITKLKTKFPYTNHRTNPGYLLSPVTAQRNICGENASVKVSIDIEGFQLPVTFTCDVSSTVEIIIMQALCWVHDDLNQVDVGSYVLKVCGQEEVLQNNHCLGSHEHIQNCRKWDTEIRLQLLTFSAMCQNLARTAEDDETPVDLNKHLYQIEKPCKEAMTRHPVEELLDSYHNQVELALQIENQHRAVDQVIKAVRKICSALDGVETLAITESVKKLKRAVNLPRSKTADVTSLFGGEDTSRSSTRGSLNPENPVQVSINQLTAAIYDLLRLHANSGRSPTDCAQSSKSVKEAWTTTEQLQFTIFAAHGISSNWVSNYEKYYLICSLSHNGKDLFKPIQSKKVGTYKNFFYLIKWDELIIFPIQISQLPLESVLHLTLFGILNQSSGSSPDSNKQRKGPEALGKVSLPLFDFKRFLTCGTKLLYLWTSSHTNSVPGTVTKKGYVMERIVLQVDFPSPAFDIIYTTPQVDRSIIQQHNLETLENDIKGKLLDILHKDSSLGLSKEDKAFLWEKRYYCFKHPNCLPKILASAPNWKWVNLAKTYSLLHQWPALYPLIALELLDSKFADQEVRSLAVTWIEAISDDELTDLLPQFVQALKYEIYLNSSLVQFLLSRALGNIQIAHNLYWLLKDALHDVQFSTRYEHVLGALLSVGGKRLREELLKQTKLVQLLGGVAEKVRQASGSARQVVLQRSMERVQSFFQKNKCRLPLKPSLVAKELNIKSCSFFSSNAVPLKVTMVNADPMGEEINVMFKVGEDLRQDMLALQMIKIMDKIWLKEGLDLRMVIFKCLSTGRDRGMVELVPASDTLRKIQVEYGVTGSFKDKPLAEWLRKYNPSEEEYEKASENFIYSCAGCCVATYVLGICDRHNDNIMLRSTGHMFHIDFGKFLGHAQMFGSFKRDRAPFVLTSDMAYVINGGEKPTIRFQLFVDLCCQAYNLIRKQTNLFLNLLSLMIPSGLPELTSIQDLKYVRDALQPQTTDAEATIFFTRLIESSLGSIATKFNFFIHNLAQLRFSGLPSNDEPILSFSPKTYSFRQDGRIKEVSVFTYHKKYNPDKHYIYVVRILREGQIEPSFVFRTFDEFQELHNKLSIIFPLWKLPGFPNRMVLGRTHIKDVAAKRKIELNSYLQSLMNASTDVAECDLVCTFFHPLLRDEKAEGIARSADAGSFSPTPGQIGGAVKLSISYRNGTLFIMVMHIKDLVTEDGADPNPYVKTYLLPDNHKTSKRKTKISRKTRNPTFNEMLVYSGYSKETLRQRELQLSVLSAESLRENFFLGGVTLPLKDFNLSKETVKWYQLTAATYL

A word on the inhibition: it is the change of the read-out against control, counted positive when it falls. Regarding `COc1ccc2c(c1)c1ccnc3c4ccnc(OC)c4c(=O)n2c13` [MW01-E14, 5,17-dimethoxy-1,11,16-triazapentacyclo[10.7.1.0^2,^7.0^8,^20.0^13,^18]icosa-2(7),3,5,8(20),9,11,13(18),14,16-nonaen-19-one], the inhibition at 10 µM in assay [1] (setting [4]) turned out to be 12%; on PIK3CG (p11 0 gamma) (setting [5]) it was 49%; at MINK1 (setting [6]) it was 12%; on AKT1 (PKB alpha) (setting [7]) it was 9%; at PIK3C2A (PI3K-C2 alpha) (setting [8]), 23%; in [2] (setting [9]), 80%. The inhibition at 10 µM on BTK (setting [10]) was 29%; in [3] (setting [11]) it was 84%; at PIP5K1C (setting [12]) it was 8%; on PI4K2B (PI4K2 beta) (setting [13]), 21%; on CSF1R (FMS) (setting [14]), 18%; at PIP5K1A (setting [15]), 11%. Further, the inhibition at 10 µM was found to be 12% at FLT3 (setting [16]) and 35% at PI4K2A (PI4K2 alpha) (setting [17]).
Consider `O=c1c2cnccc2c2nccc3c4cc(O)ccc4n1c32` [MW01-E18, 5-hydroxy-1,11,16-triazapentacyclo[10.7.1.0^2,^7.0^8,^20.0^13,^18]icosa-2(7),3,5,8(20),9,11,13(18),14,16-nonaen-19-one], for which the inhibition at 10 µM is 63% in [1] (setting [4]); 99% at PIK3CG (p11 0 gamma) (setting [5]); 85% at MINK1 (setting [6]); 12% on AKT1 (PKB alpha) (setting [7]); 44% on PIK3C2A (PI3K-C2 alpha) (setting [8]); 90% in assay [2] (setting [9]). The inhibition at 10 µM on BTK (setting [10]) was 30%; in assay [3] (setting [11]) it was 77%; on PIP5K1C (setting [12]) it was 27%; on PI4K2B (PI4K2 beta) (setting [13]), 24%; at CSF1R (FMS) (setting [14]), 57%; at PIP5K1A (setting [15]) it was 28%. For the same compound, the inhibition at 10 µM on FLT3 (setting [16]) turned out to be 65%; at PI4K2A (PI4K2 alpha) (setting [17]), 30%.
What is called IC50 is the concentration that inhibits the measured activity by half. Higher therefore signals weaker potency in that assay. In the case of `COc1ccc2cc3c(N)nn(C(=O)c4cccc(N(C)C)c4)c3nc2c1` [MW05, (3-Amino-7-methoxypyrazolo[3,4-b]quinolin-1-yl)-[3-(dimethylamino)phenyl]methanone], the inhibition at 1 µM in assay [1] (setting [18]) was 15%; on PIK3CG (p11 0 gamma) (setting [18]), 20%; at MINK1 (setting [18]) it was 20%; at AKT1 (PKB alpha) (setting [18]), 3%; at PIK3C2A (PI3K-C2 alpha) (setting [18]), -5%; in assay [2] (setting [18]), 14%. For the same compound, the inhibition at 1 µM on BTK (setting [18]) is 5%; in assay [3] (setting [18]), 40%; on PIP5K1C (setting [18]), -1%; on PI4K2B (PI4K2 beta) (setting [18]), 9%; at CSF1R (FMS) (setting [18]) it was 5%; at PIP5K1A (setting [18]), -6%. Besides, the results for the inhibition at 1 µM on FLT3 (setting [18]) and on PI4K2A (PI4K2 alpha) (setting [18]) were 2% and -7%, respectively. For the same compound, the inhibition at 10 µM amounted to 64% in assay [1] (setting [19]); 70% at PIK3CG (p11 0 gamma) (setting [19]); 9% on MINK1 (setting [19]); 3% at AKT1 (PKB alpha) (setting [19]); 1% on PIK3C2A (PI3K-C2 alpha) (setting [19]); 52% in [2] (setting [19]). The inhibition at 10 µM at BTK (setting [19]) was 8%; in assay [3] (setting [19]), 77%; at PIP5K1C (setting [19]) it was 26%; on PI4K2B (PI4K2 beta) (setting [19]), 0%; on CSF1R (FMS) (setting [19]), -6%; at PIP5K1A (setting [19]), 5%. Besides, the inhibition at 10 µM at FLT3 (setting [19]) was 6%; at PI4K2A (PI4K2 alpha) (setting [19]), -1%. The IC50 against PIK3CG (p11 0 gamma) (in vitro kinase panel, criterion of at most 2000 nM) was at most 2 µM.
